From ChEMBL document CHEMBL3351688, “Studies on the anticonvulsant activity of 4-alkyl-1,2,4-triazole-3-thiones and their effect on GABAergic system” (Eur J Med Chem, 2014)

Assays:
[1] = Toxicity in Swiss mouse assessed as effect on motor performance administered intraperitoneally 30 mins before test by Chimney test; assay type: organism-based; conditions: in vivo, ip
Mus musculus [2] = test: Anticonvulsant activity in Swiss mouse assessed as protection against seizures at 300 mg/kg, ip administered 30 mins before test by maximal electroshock seizure test; assay type: functional; conditions: route intraperitoneal
Mus musculus [3] = test: Anticonvulsant activity in Swiss mouse assessed as protection against seizures administered intraperitoneally 120 mins before test by maximal electroshock seizure test; assay type: functional; conditions: ip
Mus musculus [4] = test: Anticonvulsant activity in Swiss mouse assessed as protection against seizures at 300 mg/kg, ip administered 60 mins before test by maximal electroshock seizure test; assay type: functional; conditions: route intraperitoneal
[5] = Toxicity in Swiss mouse assessed as effect on motor performance administered intraperitoneally 120 mins before test by Chimney test; assay type: organism-based; conditions: in vivo, ip
Rattus norvegicus = species on record: Rattus norvegicus; test: Displacement of [3H]flunitrazepam form benzodiazepine receptor in rat cerebral cortex assessed as specific radio-ligand binding level at 1 uM incubated for 20 mins by liquid scintillation counting method; assay type: tissue-based
Mus musculus [6] = test: Anticonvulsant activity in Swiss mouse assessed as protection against seizures administered intraperitoneally 15 mins before test by maximal electroshock seizure test; assay type: functional; conditions: ip
[7] = Protective index, ratio of TD50 in ip Swiss mouse dosed intraperitoneally 120 mins before test by Chimney test to anticonvulsant ED50 in Swiss mouse dosed intraperitoneally 120 mins before test by MES test; assay type: ADME, organism-based; conditions: in vivo, read-out: Ratio TD50/ED50
Mus musculus [8] = test: Anticonvulsant activity in Swiss mouse assessed as protection against seizures at 300 mg/kg, ip administered 120 mins before test by maximal electroshock seizure test; assay type: functional; conditions: route intraperitoneal
[9] = Toxicity in Swiss mouse assessed as effect on motor performance administered intraperitoneally 60 mins before test by Chimney test; assay type: organism-based; conditions: in vivo, ip
Mus musculus [10] = test: Anticonvulsant activity in Swiss mouse assessed as protection against seizures administered intraperitoneally 30 mins before test by maximal electroshock seizure test; assay type: functional; conditions: ip
Mus musculus [11] = test: Anticonvulsant activity in Swiss mouse assessed as protection against seizures administered intraperitoneally 60 mins before test by maximal electroshock seizure test; assay type: functional; conditions: ip
Mus musculus [12] = test: Anticonvulsant activity in Swiss mouse assessed as protection against seizures at 300 mg/kg, ip administered 15 mins before test by maximal electroshock seizure test; assay type: functional; conditions: route intraperitoneal
[13] = Protective index, ratio of TD50 in ip Swiss mouse dosed intraperitoneally 30 mins before test by Chimney test to anticonvulsant ED50 in Swiss mouse dosed intraperitoneally 30 mins before test by MES test; assay type: ADME, organism-based; conditions: in vivo, read-out: Ratio TD50/ED50
[14] = Protective index, ratio of TD50 in ip Swiss mouse dosed intraperitoneally 60 mins before test by Chimney test to anticonvulsant ED50 in Swiss mouse dosed intraperitoneally 60 mins before test by MES test; assay type: ADME, organism-based; conditions: in vivo, read-out: Ratio TD50/ED50
[15] = biological target: GABA-A receptor; anion channel (Homo sapiens) (UniProt P14867+P47870+P18507+P28472+P48169+Q99928+Q9UN88+P34903+O00591+O14764+Q8N1C3+P18505+P78334+P47869+P31644+Q16445); test: Displacement of [3H]muscimol form GABAA receptor in rat cerebral cortex assessed as specific radio-ligand binding level at 1 uM incubated for 10 mins by liquid scintillation counting method; assay type: tissue-based; conditions: target entry is the homologue from another species
[16] = Protective index, ratio of TD50 in ip Swiss mouse dosed intraperitoneally 15 mins before test by Chimney test to anticonvulsant ED50 in Swiss mouse dosed intraperitoneally 15 mins before test by MES test; assay type: ADME, organism-based; conditions: in vivo, read-out: Ratio TD50/ED50
[17] = Toxicity in Swiss mouse assessed as effect on motor performance administered intraperitoneally 15 mins before test by Chimney test; assay type: organism-based; conditions: in vivo, ip

Structure (SMILES) | TD50 at 0.5 h [1] [mg/kg] | Activity (Mus musculus [2]) [%] | ED50 (Mus musculus [3]) [mg/kg] | Activity (Mus musculus [4]) [%] | TD50 at 2 h [5] [mg/kg] | Activity (Rattus norvegicus) [%] | ED50 (Mus musculus [6]) [mg/kg] | selectivity ratio at 2 h [7] | Activity (Mus musculus [8]) [%] | TD50 at 1 h [9] [mg/kg] | ED50 (Mus musculus [10]) [mg/kg] | ED50 (Mus musculus [11]) [mg/kg] | Activity (Mus musculus [12]) [%] | selectivity ratio at 0.5 h [13] | selectivity ratio at 1 h [14] | Activity [15] [%] | selectivity ratio at 0.25 h [16] | TD50 at 0.25 h [17] [mg/kg]
CCCCCCCCCn1c(Cc2cccc(Cl)c2)n[nH]c1=S | 493 | 100 | 200 | 100 | 465 | 0 | 193 | 2.3 | 82.5 | 493 | 117 | 86.8 | 82.5 | 4.2 | 5.7 | 0 | 2.5 | 476
CCCCCCCCCCn1c(Cc2cccc(Cl)c2)n[nH]c1=S |  | 0 |  | 0 |  | 12 |  |  | 0 |  |  |  | 0 |  |  | 15 |  | 
CCn1c(Cc2cccc(Cl)c2)n[nH]c1=S | 285 | 100 | 88.3 | 100 | 345 | 15 | 51.1 | 3.9 | 100 | 290 | 54.4 | 69.9 | 100 | 5.2 | 4.1 | 0 | 5.8 | 297
CCCCn1c(-c2cccc(Cl)c2Cl)n[nH]c1=S |  | 12.5 |  | 25 |  | 14 |  |  | 0 |  |  |  | 12.5 |  |  | 16 |  | 
CCCCCn1c(Cc2cccc(Cl)c2)n[nH]c1=S | 322 | 100 | 84.2 | 100 | 348 | 14 | 48.5 | 4.1 | 100 | 329 | 62.5 | 68.4 | 100 | 5.2 | 4.8 | 10 | 7.6 | 371
NCCCC(=O)O |  |  |  |  |  |  |  |  |  |  |  |  |  |  |  | 82 |  | 
CCCCCCCn1c(Cc2cccc(Cl)c2)n[nH]c1=S | 640 | 100 | 89.6 | 100 | 442 | 1 | 49.7 | 4.9 | 100 | 519 | 76.3 | 70.6 | 100 | 8.4 | 7.3 | 4 | 10.2 | 507
CCCCCCn1c(-c2cccc(Cl)c2Cl)n[nH]c1=S |  | 12.5 |  | 25 |  | 10 |  |  | 12.5 |  |  |  | 12.5 |  |  | 2 |  | 
CCCCCn1c(-c2cccc(Cl)c2Cl)n[nH]c1=S | 354 | 62.5 | 348 | 62.5 | 326 | 18 | 329 |  | 37.5 | 348 | 276 | 285 | 37.5 | 1.3 | 1.2 | 0 | 1.2 | 386
CCCCCCn1c(Cc2cccc(Cl)c2)n[nH]c1=S | > 1000 | 100 | 97.9 | 100 | 548 | 1 | 72.1 | 5.6 | 100 | 541 | 74.5 | 83.6 | 100 | > 13.4 | 6.5 | 3 | > 13.9 | > 1000
Cc1ccc(-c2nc3ccc(C)cn3c2CC(=O)N(C)C)cc1 |  |  |  |  |  | 73 |  |  |  |  |  |  |  |  |  |  |  | 
CCCCCCCCn1c(Cc2cccc(Cl)c2)n[nH]c1=S | 486 | 100 | 224 | 100 | 441 | 0 | 162 | 2 | 82.5 | 436 | 166 | 153 | 100 | 2.9 | 2.8 | 8 | 2.4 | 391
CCCCn1c(Cc2cccc(Cl)c2)n[nH]c1=S | 310 | 100 | 102 | 100 | 325 | 0 | 44.5 | 3.2 | 100 | 298 | 43.2 | 61.5 | 100 | 7.2 | 4.8 | 13 | 7.3 | 326
CCCCCCCn1c(-c2cccc(Cl)c2Cl)n[nH]c1=S |  | 25 |  | 25 |  | 8 |  |  | 12.5 |  |  |  | 25 |  |  | 3 |  | 
CCn1c(-c2cccc(Cl)c2Cl)n[nH]c1=S |  | 0 |  | 0 |  | 5 |  |  | 0 |  |  |  | 0 |  |  | 19 |  | 
CCCCCCCCCCCCn1c(Cc2cccc(Cl)c2)n[nH]c1=S |  | 0 |  | 0 |  | 12 |  |  | 0 |  |  |  | 0 |  |  | 0 |  | 
CN1C(=O)CN=C(c2ccccc2)c2cc(Cl)ccc21 |  |  |  |  |  | 83 |  |  |  |  |  |  |  |  |  |  |  | 
